Measurements from patent publication US20230136600A1, “Method and device for screening antigen epitope polypeptide” (priority 2020, published 2023).

System: Balb/c mice
Test: Polypeptide chip-based vaccine immunogenicity scoring system
Format: in vivo
Parameters: key to A2: whether the 95 percentile of the last sampling is increased compared with the end point: Y = rise; N = no rise
Conditions: for A1: difference between a highest median and a D 0 median (95 percentile) / A2: whether the 95 percentile of the last sampling is increased compared with the end point: Mix1-10; for A: 95 percentile grouping number score / B: Mouse performance score: total score = 5; for C1: #A timing-sequence response peptide fragment set / C2: #B vaccine specificity peptide fragment set / C3: Intersection of A and B / C4: Percentage of the intersection in set B / C: Timing-sequence response and specificity score: value of the whole mix
Procedure: Data distribution and characteristics thereof are analyzed based on a) and b), a polypeptide chip-based vaccine immunogenicity scoring system (referring to Table 7) is designed.
10 combinations are evaluated by the polypeptide chip-based vaccine immunogenicity scoring system. An evaluation method is consistent with that in Embodiment II. Evaluation results are show in the table below.
This embodiment is consistent with Embodiment II. Each combination is evaluated by the polypeptide chip-based vaccine immunogenicity scoring system. Evaluation results are show in the table below.

[1] = Embodiment III, polypeptide-KLH
[2] = Embodiment III, polypeptide-KLH, A*3 + B*2 + C*1
[3] = adjuvant AddaVax, 7 peptides co-immunized in mice
[4] = adjuvant Adju-Phos, 7 peptides co-immunized in mice
[5] = adjuvant Alhydrogel, 7 peptides co-immunized in mice
[6] = adjuvant Imjet Alumn, 7 peptides co-immunized in mice
[7] = adjuvant MA103A, 7 peptides co-immunized in mice
[8] = adjuvant MA103B, 7 peptides co-immunized in mice

DNQDLNGNWY (SARS-CoV-2) [SEQ ID NO:31]
B1: D 0-D 14 95 percentile rise in the number of mice [1]: 2 | B2: D 0-D 21 95 percentile rise in the number of mice [1]: 3 | B3: D 14-D 21 95 percentile rise in the number of mice [1]: 2 | B4: D 21-D 28 95 percentile rise in the number of mice [1]: 0 | A1: difference between a highest median and a D 0 median (95 percentile) [1]: 0.93 | A2: whether the 95 percentile of the last sampling is increased compared with the end point [1]: N | Total single peptide [2]: 14.2 | A: 95 percentile grouping number score [1]: 3.5 | B: Mouse performance score [1]: 1.6 | C1: #A timing-sequence response peptide fragment set [1]: 511 | C2: #B vaccine specificity peptide fragment set [1]: 364 | C3: Intersection of A and B [1]: 1 | C4: Percentage of the intersection in set B [1]: 0.275 | C: Timing-sequence response and specificity score [1]: 0.5

YYKKDNSYF (SARS-CoV-2) [SEQ ID NO:25]
B1: D 0-D 14 95 percentile rise in the number of mice [1]: 2 | B2: D 0-D 21 95 percentile rise in the number of mice [1]: 3 | B3: D 14-D 21 95 percentile rise in the number of mice [1]: 2 | B4: D 21-D 28 95 percentile rise in the number of mice [1]: 1 | A1: difference between a highest median and a D 0 median (95 percentile) [1]: 0.06 | A2: whether the 95 percentile of the last sampling is increased compared with the end point [1]: N | Total single peptide [2]: 9.1 | A: 95 percentile grouping number score [1]: 1.5 | B: Mouse performance score [1]: 1.8 | C1: #A timing-sequence response peptide fragment set [1]: 823 | C2: #B vaccine specificity peptide fragment set [1]: 398 | C3: Intersection of A and B [1]: 7 | C4: Percentage of the intersection in set B [1]: 1.759 | C: Timing-sequence response and specificity score [1]: 1

ALDPLSETKCT (SARS-CoV-2) [SEQ ID NO:4]
B1: D 0-D 14 95 percentile rise in the number of mice [1]: 2 | B2: D 0-D 21 95 percentile rise in the number of mice [1]: 3 | B3: D 14-D 21 95 percentile rise in the number of mice [1]: 2 | B4: D 21-D 28 95 percentile rise in the number of mice [1]: 0 | A1: difference between a highest median and a D 0 median (95 percentile) [1]: 0.15 | A2: whether the 95 percentile of the last sampling is increased compared with the end point [1]: N | Total single peptide [2]: 17.7 | A: 95 percentile grouping number score [1]: 4.5 | B: Mouse performance score [1]: 1.6 | C1: #A timing-sequence response peptide fragment set [1]: 1494 | C2: #B vaccine specificity peptide fragment set [1]: 190 | C3: Intersection of A and B [1]: 2 | C4: Percentage of the intersection in set B [1]: 1.053 | C: Timing-sequence response and specificity score [1]: 1

ECVLGQSKR (SARS-CoV-2) [SEQ ID NO:10]
B1: D 0-D 14 95 percentile rise in the number of mice [1]: 3 | B2: D 0-D 21 95 percentile rise in the number of mice [1]: 3 | B3: D 14-D 21 95 percentile rise in the number of mice [1]: 1 | B4: D 21-D 28 95 percentile rise in the number of mice [1]: 0 | A1: difference between a highest median and a D 0 median (95 percentile) [1]: 0.11 | A2: whether the 95 percentile of the last sampling is increased compared with the end point [1]: N | Total single peptide [2]: 17.9 | A: 95 percentile grouping number score [1]: 4.5 | B: Mouse performance score [1]: 1.7 | C1: #A timing-sequence response peptide fragment set [1]: 1494 | C2: #B vaccine specificity peptide fragment set [1]: 190 | C3: Intersection of A and B [1]: 2 | C4: Percentage of the intersection in set B [1]: 1.053 | C: Timing-sequence response and specificity score [1]: 1

LQDLKWARFPKS [SEQ ID NO:29]
B1: D 0-D 14 95 percentile rise in the number of mice [1]: 3 | B2: D 0-D 21 95 percentile rise in the number of mice [1]: 3 | B3: D 14-D 21 95 percentile rise in the number of mice [1]: 2 | B4: D 21-D 28 95 percentile rise in the number of mice [1]: 0 | A1: difference between a highest median and a D 0 median (95 percentile) [1]: 0.10 | A2: whether the 95 percentile of the last sampling is increased compared with the end point [1]: N | Total single peptide [2]: 16.3 | A: 95 percentile grouping number score [1]: 4 | B: Mouse performance score [1]: 1.9 | C1: #A timing-sequence response peptide fragment set [1]: 257 | C2: #B vaccine specificity peptide fragment set [1]: 682 | C3: Intersection of A and B [1]: 3 | C4: Percentage of the intersection in set B [1]: 0.440 | C: Timing-sequence response and specificity score [1]: 0.5 | 1) 95 percentile grouping number A [3]: 4 | 1) 95 percentile grouping number A1 [3]: 0.055 | 2) Mouse performance B [3]: 3.5 | 2) Mouse performance B1 [3]: 3 | 2) Mouse performance B2 [3]: 5 | 2) Mouse performance B3 [3]: 4 | 3) Timing-sequence response and specificity C [3]: 0 | 3) Timing-sequence response and specificity C1 [3]: 237 | 3) Timing-sequence response and specificity C2 [3]: 1244 | 3) Timing-sequence response and specificity C3 [3]: 0 | 3) Timing-sequence response and specificity C4 [3]: 0.000 | Total single peptide [3]: 19 | 1) 95 percentile grouping number A [4]: 3.5 | 1) 95 percentile grouping number A1 [4]: 0.055 | 2) Mouse performance B [4]: 1.9 | 2) Mouse performance B1 [4]: 3 | 2) Mouse performance B2 [4]: 3 | 2) Mouse performance B3 [4]: 1 | 3) Timing-sequence response and specificity C [4]: 0 | 3) Timing-sequence response and specificity C1 [4]: 203 | 3) Timing-sequence response and specificity C2 [4]: 1244 | 3) Timing-sequence response and specificity C3 [4]: 0 | 3) Timing-sequence response and specificity C4 [4]: 0.000 | Total single peptide [4]: 14.3 | 1) 95 percentile grouping number A [5]: 3 | 1) 95 percentile grouping number A1 [5]: 0.04 | 2) Mouse performance B [5]: 1.9 | 2) Mouse performance B1 [5]: 5 | 2) Mouse performance B2 [5]: 2 | 2) Mouse performance B3 [5]: 0 | 3) Timing-sequence response and specificity C [5]: 1 | 3) Timing-sequence response and specificity C1 [5]: 123 | 3) Timing-sequence response and specificity C2 [5]: 1244 | 3) Timing-sequence response and specificity C3 [5]: 2 | 3) Timing-sequence response and specificity C4 [5]: 0.161 | Total single peptide [5]: 13.3 | 1) 95 percentile grouping number A [6]: 5 | 1) 95 percentile grouping number A1 [6]: 0.08 | 2) Mouse performance B [6]: 2.5 | 2) Mouse performance B1 [6]: 5 | 2) Mouse performance B2 [6]: 3 | 2) Mouse performance B3 [6]: 1 | 3) Timing-sequence response and specificity C [6]: 1 | 3) Timing-sequence response and specificity C1 [6]: 100 | 3) Timing-sequence response and specificity C2 [6]: 1244 | 3) Timing-sequence response and specificity C3 [6]: 3 | 3) Timing-sequence response and specificity C4 [6]: 0.241 | Total single peptide [6]: 20.5 | 1) 95 percentile grouping number A [7]: 5 | 1) 95 percentile grouping number A1 [7]: 0.08 | 2) Mouse performance B [7]: 2.9 | 2) Mouse performance B1 [7]: 5 | 2) Mouse performance B2 [7]: 5 | 2) Mouse performance B3 [7]: 1 | 3) Timing-sequence response and specificity C [7]: 1 | 3) Timing-sequence response and specificity C1 [7]: 260 | 3) Timing-sequence response and specificity C2 [7]: 1244 | 3) Timing-sequence response and specificity C3 [7]: 3 | 3) Timing-sequence response and specificity C4 [7]: 0.241 | Total single peptide [7]: 21.3 | 1) 95 percentile grouping number A [8]: 4.5 | 1) 95 percentile grouping number A1 [8]: 0.065 | 2) Mouse performance B [8]: 3.7 | 2) Mouse performance B1 [8]: 5 | 2) Mouse performance B2 [8]: 5 | 2) Mouse performance B3 [8]: 3 | 3) Timing-sequence response and specificity C [8]: 0 | 3) Timing-sequence response and specificity C1 [8]: 153 | 3) Timing-sequence response and specificity C2 [8]: 1244 | 3) Timing-sequence response and specificity C3 [8]: 0 | 3) Timing-sequence response and specificity C4 [8]: 0.000 | Total single peptide [8]: 20.9

NSVAYSNNS (SARS-CoV-2) [SEQ ID NO:9]
B1: D 0-D 14 95 percentile rise in the number of mice [1]: 3 | B2: D 0-D 21 95 percentile rise in the number of mice [1]: 3 | B3: D 14-D 21 95 percentile rise in the number of mice [1]: 1 | B4: D 21-D 28 95 percentile rise in the number of mice [1]: 1 | A1: difference between a highest median and a D 0 median (95 percentile) [1]: 0.07 | A2: whether the 95 percentile of the last sampling is increased compared with the end point [1]: N | Total single peptide [2]: 10.3 | A: 95 percentile grouping number score [1]: 2 | B: Mouse performance score [1]: 1.9 | C1: #A timing-sequence response peptide fragment set [1]: 145 | C2: #B vaccine specificity peptide fragment set [1]: 529 | C3: Intersection of A and B [1]: 1 | C4: Percentage of the intersection in set B [1]: 0.189 | C: Timing-sequence response and specificity score [1]: 0.5

ERSEKSYEL (SARS-CoV-2) [SEQ ID NO:28]
B1: D 0-D 14 95 percentile rise in the number of mice [1]: 1 | B2: D 0-D 21 95 percentile rise in the number of mice [1]: 2 | B3: D 14-D 21 95 percentile rise in the number of mice [1]: 0 | B4: D 21-D 28 95 percentile rise in the number of mice [1]: 1 | A1: difference between a highest median and a D 0 median (95 percentile) [1]: 0.11 | A2: whether the 95 percentile of the last sampling is increased compared with the end point [1]: N | Total single peptide [2]: 14.3 | A: 95 percentile grouping number score [1]: 4 | B: Mouse performance score [1]: 0.9 | C1: #A timing-sequence response peptide fragment set [1]: 1212 | C2: #B vaccine specificity peptide fragment set [1]: 389 | C3: Intersection of A and B [1]: 1 | C4: Percentage of the intersection in set B [1]: 0.257 | C: Timing-sequence response and specificity score [1]: 0.5

ETSNSFDVLKSE [SEQ ID NO:30]
B1: D 0-D 14 95 percentile rise in the number of mice [1]: 2 | B2: D 0-D 21 95 percentile rise in the number of mice [1]: 2 | B3: D 14-D 21 95 percentile rise in the number of mice [1]: 2 | B4: D 21-D 28 95 percentile rise in the number of mice [1]: 1 | A1: difference between a highest median and a D 0 median (95 percentile) [1]: 0.02 | A2: whether the 95 percentile of the last sampling is increased compared with the end point [1]: N | Total single peptide [2]: 6.7 | A: 95 percentile grouping number score [1]: 1 | B: Mouse performance score [1]: 1.6 | C1: #A timing-sequence response peptide fragment set [1]: 230 | C2: #B vaccine specificity peptide fragment set [1]: 251 | C3: Intersection of A and B [1]: 1 | C4: Percentage of the intersection in set B [1]: 0.398 | C: Timing-sequence response and specificity score [1]: 0.5

PLQPELDSFKEE [SEQ ID NO:37]
B1: D 0-D 14 95 percentile rise in the number of mice [1]: 3 | B2: D 0-D 21 95 percentile rise in the number of mice [1]: 2 | B3: D 14-D 21 95 percentile rise in the number of mice [1]: 1 | B4: D 21-D 28 95 percentile rise in the number of mice [1]: 1 | A1: difference between a highest median and a D 0 median (95 percentile) [1]: 0.09 | A2: whether the 95 percentile of the last sampling is increased compared with the end point [1]: Y | Total single peptide [2]: 15.9 | A: 95 percentile grouping number score [1]: 4 | B: Mouse performance score [1]: 1.7 | C1: #A timing-sequence response peptide fragment set [1]: 230 | C2: #B vaccine specificity peptide fragment set [1]: 251 | C3: Intersection of A and B [1]: 1 | C4: Percentage of the intersection in set B [1]: 0.398 | C: Timing-sequence response and specificity score [1]: 0.5
